Data reported in paper PMC7524946, “[^11C]mHED PET follows a two-tissue compartment model in mouse myocardium with norepinephrine transporter (NET)-dependent uptake, while [^18F]LMI1195 uptake is NET-independent” (EJNMMI Research, 2020).
“And” between values parts separate entries of the source, which are not always exact repeats. Equal values may be shown once. “Also recorded” adds a separate entry of the source. Read-outs that look alike come from different tables or passages of the source.

Assays:
NET [1] = test system: NET; parameters: method as in PMID 20679472, PMID 9290077; settings: mouse myocardium; cited from earlier work
[2] = target: T1, norepinephrine transporter (NET) (Mus musculus, UniProt O55192); test: Dose dependency of myocardial [^11C]mHED uptake by PET/CT (NET saturation); format: in vivo, FVB/N mice; settings: mouse myocardium
T1 construct: from tissue; host or cells: myocardium (sympathetic nerve terminals) of living FVB/N mice, in vivo PET/CT
Protocol: (§1) PET/computed tomography (CT) scans were performed with a calibrated SuperArgus PET/CT scanner (Sedecal, Madrid, Spain) with an axial field of view of 4.8 cm and a spatial resolution of 1.6–1.7 mm (full width at half maximum). Animals were under anaesthesia with ~ 2.5% isoflurane in oxygen/air (1:1) for tracer injection into the tail vein and during the scan. […] For scans without kinetic modelling, tracer was injected into mouse tail vein on scanner bed and the scan was started 1 min p.i. For kinetic modelling, [^11C]mHED was injected using the shunt system (see “Input function” section) on the scanner bed. Depth of anaesthesia was monitored by measuring the respiratory rate (SA Instruments, Inc., Stony Brook, USA). Body temperature was monitored by a rectal probe and kept at 37 °C by a heated air stream (37 °C). […] PET scans were followed by a CT for anatomical orientation.
For quantitative analyses, PET data in NIfTI file format were read with the R package oro.nifti version 0.9.1, and a cube of 36 × 30 × 30 voxels (8.7 × 7.3 × 7.3 mm^3) including the heart as judged from the PET and CT data was cropped. A liver mask was defined including all voxels with a slope ≥ − 0.012 SUV/min between 11 and 48 min p.i. (the slope limit was empirically defined by visual inspection of the results, Fig. 1). PET data corresponding to the liver mask were excluded. The myocardium mask was defined from the remaining data as the volume with highest SUV between 3 and 11 min p.i., corresponding to 0.5% of the individual body weight. Average SUV was calculated for the indicated time windows (stated as SUVstart time–end time). The SUV of the neck region was obtained from a spherical region of interest with 3 mm radius, placed over the shoulders, close to the spine.
The dose of combined administered [^11C]mHED and metaraminol (precursor for radiosynthesis) at half-maximal NET saturation in nmol/kg (D50) was calculated from the myocardial SUV1–31 min at various doses (D). […] Fit parameters were SUV1–31 min at indefinitely low dose (SUVmax), SUV1–31 min at full NET saturation, i.e. SUV1–31 min for nondisplaceable tracer (SUVmin) and D50, according to Eq. 3 which was fit to the data with the function nls of R.3 SUV1-31min=SUVmax-SUVmin×D50/D50+D+SUVmin

[3] = after [^11C]mHED i.v. injection
Protocol: Mice were injected awake with formulated [^11C]mHED (26–173 MBq) via the tail vein. Animals were anaesthetized with 5% isoflurane in oxygen/air (1:1) and euthanized by decapitation at the indicated time points to collect blood, urine, and heart tissue. Plasma was separated from blood by centrifugation (5000×g for 5 min at 4 °C). Plasma and urine were each mixed with equal volumes of ice-cold acetonitrile (MeCN) for protein precipitation. The dissected heart was homogenized in 2 ml PBS, and proteins were precipitated with 2 ml ice-cold MeCN. The samples were centrifuged (5000×g, 4 °C), and the supernatants were filtered and analysed by radio-UPLC (Waters Acquity UPLC HSS T3 1.8 µm) with the following separation conditions: 10 mM NH4HCO3 (solvent A), MeCN (solvent B); 0.0–1.0 min, 5–30% B; 1.0–1.7 min, 30% B; 1.7–1.8 min, 30–5% B and 1.8–3.0 min, 5% B at a flow rate of 0.5 ml/min (retention time: 1.75 min). The fraction of parent tracer radioactivity to total radioactivity in plasma (fparent) was calculated as the ratio of radioactivity in the [^11C]mHED peak and total detected radioactivity in the chromatogram.
In Eq. 1, q1 to q4 are the fit parameters (q3 was estimated and fixed) and t is the time. Equation 1 was empirically defined, taking into account the exponential functions of time under linear kinetics and a lag phase for metabolite formation.

NET [4] = settings: cited from earlier work; for D50: rat left ventricle wall
[5] = target: T1, norepinephrine transporter (NET); test: PET/CT myocardial tracer uptake with desipramine blocking (specificity for NET); format: in vivo, FVB/N mice; settings: 20 mg/kg desipramine HCl i.p. 10 min before tracer i.v.
Protocol: as §1
Two [^11C]mHED scans (one baseline, one for kinetic modelling) were excluded from further analysis due to technical problems before or during the scan, respectively (not included in Table 1). […] Tissue radioactivity was either expressed as kBq/cm^3 or normalized to the injected dose per g body weight (kBq/g) and expressed as SUV, assuming a tissue density of 1 g/cm^3. […]

mouse myocardium = test: [^11C]mHED PET kinetic (compartment) modelling with arteriovenous shunt input function; format: in vivo, FVB/N mice; settings: mean of 3 scans (SD)
Protocol: as §1
For kinetic modelling, an arteriovenous shunt system was applied to record the coincidences of arterial blood (Twilite, Swisstrace, Zurich, Switzerland) simultaneously with the PET data acquisition (Additional file 1). The resulting blood coincidences were transformed to Bq/ml with a calibration factor determined from simultaneous measurements of an [^11C]mHED solution in the PET scanner and the blood counter. Next, the blood Bq/ml was multiplied with fitted Eq. 2 to calculate the plasma activity concentration. Finally, the plasma Bq/ml was multiplied with fitted Eq. 1 to receive the parent tracer Bq/ml in plasma, which is the input function.
PET kinetic modelling with R was performed with a one- and three two-tissue compartment models according to Eq. 4,4 CPET=1-vb×Wmodel⊗Ca+vb×Cb where CPET is the activity concentration in the PET image, either as kBq/cm^3 or normalised as SUV, vb is the partial volume of blood in the region-of-interest (potentially including interstitial space), Wmodel is the model-dependent weighting function. Ca is the parent tracer activity concentration in the arterial plasma (input function, kBq/ml, or SUV), and Cb is the whole blood activity concentration as calculated from the blood coincidences, in kBq/cm^3 or as SUV.
WTCM1 for the one-tissue compartment model (TCM1, Fig. 2a) corresponds to K1 × exp(− k2 × t), with t as time, K1 and k2 the clearance term from plasma to tissue and rate constant back, respectively. WTCM2p and WTCM2s for the two-tissue compartment models with parallel (TCM2p, Fig. 2b) and serial (TCM2s, Fig. 2c) tissue compartments, respectively, were according to Eqs. 5–10 [16]. In the case of the TCM2p, K1, k2, K3, and k4 correspond to φ1, θ1, φ2, and θ2, respectively, of Eq. 5. WTCM2v for the two-tissue compartment model in Fig. 2d (TCM2v) was numerically solved from the differential equation system in Eqs. 11 and 12 with the R package deSolve and the ode function, with 1-s time intervals.
Besides the transfer clearance or rate constants K1, k2, k3 (or K3 for TCM2p), and k4, vb was included as a parameter to fit. Equation 3 was fit to the experimental TACs applying the optim minimization function of R.
Fits were run with multiple starts with a matrix of 101 sets of random start parameters between lower and upper limits for K1, k2, k3 (or K3), k4, and vb (Additional file 1: Table S1). The activity concentrations in the individual tissue compartments were simulated by numerically solving the respective differential equation systems for TCM2s and TCM2v and from the analytical solutions for TCM2p (the two exponential terms of Eq. 5). Calculations were performed in parallel on a 32 core workstation. Best fits were chosen based on the sum of squared residues (SSR) between predicted and experimental TACs. […] Correlations between parameters were calculated with the lm, cor, and cor.test functions of R and were considered significant at p < 0.05.

myocardium = test system: myocardium; parameters: method as in PMID 27230922; settings: humans, recent PET study; cited from earlier work
[6] = Protocol: For determining activity concentration ratios of plasma to whole blood in mice, 11–90 MBq [^11C]mHED were injected intravenously (i.v.) via the tail vein in awake mice. After anaesthesia, animals were euthanized at the indicated time points and blood was collected. An aliquot was centrifuged as described above to separate plasma from blood cells. Plasma and whole blood activity concentrations (Bq/ml) were determined by a gamma counter (Wizard 1480; Perkin Elmer) to calculate the plasma/whole blood activity concentration ratio (ρplasma/blood). Bi-exponential function (Eq. 2) was fit to ρplasma/blood over time using the nls function of R.2 ρplasma/blood=r1×exp-r3×t-r2×exp-r4×t+r2
In Eq. 2, r1 to r4 are the fit parameters and t is the time.

NET [7] = test system: NET; parameters: method as in PMID 21555377, PMID 23601914; settings: nonhuman primates; cited from earlier work
NET [8] = test system: NET; parameters: method as in PMID 21555377, PMID 23601914; settings: rats; cited from earlier work
NET [9] = test system: NET; parameters: method as in PMID 21555377, PMID 23601914; settings: rabbits; cited from earlier work
NET [10] = test system: NET; parameters: method as in PMID 21555377, PMID 23601914; settings: human subjects; cited from earlier work
[11] = volume-of-interest 0.5% body volume

T1 sequence (O55192 whole entry): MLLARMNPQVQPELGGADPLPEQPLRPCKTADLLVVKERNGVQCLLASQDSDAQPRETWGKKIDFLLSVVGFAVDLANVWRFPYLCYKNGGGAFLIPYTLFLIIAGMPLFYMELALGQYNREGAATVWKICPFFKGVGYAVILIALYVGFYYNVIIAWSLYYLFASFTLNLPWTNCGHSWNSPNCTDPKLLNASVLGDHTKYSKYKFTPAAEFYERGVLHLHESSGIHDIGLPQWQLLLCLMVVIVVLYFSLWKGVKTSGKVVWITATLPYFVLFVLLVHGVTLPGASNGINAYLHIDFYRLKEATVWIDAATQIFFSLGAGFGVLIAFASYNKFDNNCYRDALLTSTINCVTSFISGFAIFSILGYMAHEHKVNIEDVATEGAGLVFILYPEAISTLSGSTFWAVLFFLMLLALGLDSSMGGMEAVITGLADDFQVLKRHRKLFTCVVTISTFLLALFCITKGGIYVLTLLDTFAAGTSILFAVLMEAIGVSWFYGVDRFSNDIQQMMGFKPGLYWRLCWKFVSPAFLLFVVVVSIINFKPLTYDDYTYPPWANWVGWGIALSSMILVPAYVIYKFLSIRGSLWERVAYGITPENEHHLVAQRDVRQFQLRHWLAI

C[C@H](N[11CH3])[C@H](O)c1cccc(O)c1 [[^11C]mHED, [^11C]meta-hydroxyephedrine]
Reported D50 (NET [1]): 132 nmol/kg | D50 (dose of combined [^11C]mHED and metaraminol at half-maximal NET saturation) ([2]; from SUV1–31 min, fit Eq. 3, n = 14 scans): 88.3 nmol/kg | D50 (dose at half-maximal NET saturation) ([2]; from SUV1–61 min (complete scan duration)): 89.1 nmol/kg | Fit SUVmax (SUV1–31 min at indefinitely low dose) [2, 11]: 4.4 | Fit SUVmin (SUV1–31 min at full NET saturation, nondisplaceable tracer) [2, 11]: 1.0 | Radiometabolite in plasma and urine ([3]; mouse): detected a radiometabolite in plasma and urine | Radiometabolite in myocardium ([3]; mouse heart extract): no radiometabolite were detected | Reported D50 (NET [4]; rat myocardium): 91 nmol/kg | Blocking of myocardial tracer uptake by desipramine [5]: significantly reduced; also recorded: blocking effect was observed | K1 (mouse myocardium; TCM1): 0.87 ± 0.11 ml/min/cm^3 and 0.868 (0.113) ml/min/cm^3 | k2 (mouse myocardium; TCM1): 0.029 (0.01) 1/min | K1 (mouse myocardium; TCM2p): 0.499 (0.153) ml/min/cm^3 | K3 (mouse myocardium; TCM2p): 0.448 (0.114) ml/min/cm^3 | k2 (mouse myocardium; TCM2p): 0.0125 (0.0034) 1/min | k4 (mouse myocardium; TCM2p): 0.134 (0.040) 1/min | K1 (mouse myocardium; TCM2s): 0.947 ± 0.146 ml/min/cm^3 and 0.947 (0.146) ml/min/cm^3 | k2 (mouse myocardium; TCM2s): 0.0672 (0.0062) 1/min | k3 (mouse myocardium; TCM2s): 0.0541 (0.0263) 1/min | k4 (mouse myocardium; TCM2s): 0.0254 (0.0117) 1/min | K1 (mouse myocardium; TCM2v): 0.947 ± 0.146 ml/min/cm^3 and 0.947 (0.146) ml/min/cm^3 | k2 (mouse myocardium; TCM2v): 0.0672 (0.0062) 1/min | k3 (mouse myocardium; TCM2v): 0.0669 (0.0344) 1/min | k4 (mouse myocardium; TCM2v): 0.0125 (0.0034) 1/min | K1 of [^11C]mHED uptake (myocardium): up to 0.6 ml/min/g | ρplasma/blood (plasma/whole blood activity concentration ratio) ([6]; at 3 min): ~ 0.6 | ρplasma/blood (plasma/whole blood activity concentration ratio) ([6]; constant value from ~ 20 min onwards): ~ 1 | ρplasma/blood (plasma/whole blood activity concentration ratio) ([6]; time t = 0, assumed 1/(1-Hkt), hematocrit 0.458): 1.85

N=C(N)NCc1ccc(OCCC[18F])c(Br)c1 [[^18F]LMI1195, [^18F]flubrobenguane]
Desipramine sensitivity of cardiac uptake (NET [7]): desipramine-sensitive | Desipramine sensitivity of cardiac uptake (NET [8]): not in rats | Blocking of myocardial tracer uptake by desipramine [5]: not | Desipramine sensitivity of cardiac uptake (NET [9]): desipramine-sensitive | Desipramine sensitivity of cardiac uptake (NET [10]): desipramine-sensitive

CNC(C)C(O)c1cccc(O)c1 (stereo not shown) [mHED, meta-hydroxyephedrine]
D50 (NET [4]): 90 to 100 nmol/kg

C[C@H](N)[C@H](O)c1cccc(O)c1 [metaraminol]
D50 (NET [4]): 90 to 100 nmol/kg
